This note sets out measurements from ChEMBL document CHEMBL2412952, “2-Substituted 4-hydroxybutanamides as potential inhibitors of γ-aminobutyric acid transporters mGAT1-mGAT4: synthesis and biological evaluation” (Bioorg Med Chem, 2013).

Experiment [1] is described as follows: Inhibition of mouse GAT4-mediated [3H]GABA uptake stably transfected in HEK293 cells. The class given is cell-based.
The target in experiment [2] is Sodium- and chloride-dependent GABA transporter 1 (Mus musculus) (UniProt P31648). The experiment in a line: Binding affinity to mouse GAT1 stably transfected in HEK293 cells assessed as residual binding at 100 uM relative to control. The class given is cell-based.
Experiment [3] has as its target T1, Sodium- and chloride-dependent GABA transporter 1 (Mus musculus, UniProt P31648). The experiment in a line: Inhibition of mouse GAT1-mediated [3H]GABA uptake stably transfected in HEK293 cells. The class given is cell-based.
The target in experiment [4] is Sodium- and chloride-dependent GABA transporter 1 (Mus musculus) (UniProt P31648). The experiment in a line: Inhibition of mouse GAT1-mediated [3H]GABA uptake stably transfected in HEK293 cells assessed as residual uptake at 100 uM relative to control. The class given is cell-based.
The target of experiment [5] is T1, Sodium- and chloride-dependent GABA transporter 1. The experiment in a line: Binding affinity to mouse GAT1 stably transfected in HEK293 cells by NO-711 binding assay. The format is cell-based.
Experiment [6] deals with HEK293. The experiment in a line: Inhibition of mouse GAT4-mediated [3H]GABA uptake stably transfected in HEK293 cells assessed as residual uptake at 100 uM relative to control. The class given is cell-based.
Experiment [7] deals with GABA transporter 2 (Mus musculus). The experiment in a line: Inhibition of mouse GAT2-mediated [3H]GABA uptake stably transfected in HEK293 cells assessed as residual uptake at 100 uM relative to control.
Experiment [8] concerns GABA transporter 3 (Mus musculus). The experiment in a line: Inhibition of mouse GAT3-mediated [3H]GABA uptake stably transfected in HEK293 cells assessed as residual uptake at 100 uM relative to control.

Each structure is given as a SMILES string.

Take `C[C@@H](O)C[C@H](C(=O)NCc1ccccc1)N1CCC(=C(c2ccccc2)c2ccccc2)CC1` (relative stereo): the half-maximal inhibitory concentration (IC50) in experiment [1] was 89.1 µM; in experiment [3], 7.76 µM. For the same molecule, the Activity in experiment [2] is 50%.
In the case of `Cc1ccc(CNC(=O)[C@@H](C[C@@H](C)O)N2CCC(=C(c3ccccc3)c3ccccc3)CC2)cc1` (relative stereo), the Activity in experiment [2] turned out to be 58%; in experiment [4] it was 46%.
As to `O=C(NCc1ccccc1)C(CCO)NCCCC(c1ccccc1)c1ccccc1` (stereo unspecified), the IC50 in experiment [1] is 38.9 µM; in experiment [3], 61.7 µM. The Activity in experiment [2] stood at 62%.
Regarding `Cc1ccc(CNC(=O)C(CCO)N2CCC(=C(c3ccccc3)c3ccccc3)CC2)cc1` (stereo unspecified), the IC50 in experiment [1] is 33.9 µM; in experiment [3], 38 µM. This molecule also showed a Ki in experiment [5] of 43.7 µM.
As to `C[C@H](O)C[C@H](C(=O)NCc1ccc(F)cc1)N1CCC(=C(c2ccccc2)c2ccccc2)CC1` (relative stereo), the values for the Activity in experiment [2] and in experiment [6] were 52% and 65%, respectively. Besides, the IC50 in experiment [3] was 34.7 µM.
As to `O=C(NCc1ccc(Cl)cc1)C(CCO)NCCCC(c1ccccc1)c1ccccc1` (stereo unspecified), the IC50 in experiment [1] was 16.6 µM; in experiment [3] it was 23.4 µM. In experiment [5], the Ki is 56.2 µM.
Turning to `CN(CCCC(c1ccccc1)c1ccccc1)C(CCO)C(=O)NCc1ccccc1` (stereo unspecified), the IC50 is 36.3 µM in experiment [1] and 58.9 µM in experiment [3]. For the same molecule, in experiment [2], the Activity amounted to 79%.
Consider `O=C(NCc1ccccc1Cl)C(CCO)NCCCC(c1ccccc1)c1ccccc1` (stereo unspecified), for which the half-maximal inhibitory concentration (IC50) was 20.9 µM in experiment [1] and 33.1 µM in experiment [3]. For the same molecule, the Ki in experiment [5] is 46.8 µM.
The corresponding values for `Cc1ccc(CNC(=O)C(CCO)N(C)CCCC(c2ccccc2)c2ccccc2)cc1` (stereo unspecified) are 20.4 µM, 37.2 µM and 81.3 µM.
Consider `O=C(NCc1ccc(F)cc1)C(CCO)NCCCC(c1ccccc1)c1ccccc1` (stereo unspecified), for which the IC50 in experiment [1] is 25.1 µM; in experiment [3], 38.9 µM. In experiment [2], the Activity was found to be 82%.
With `CN(CCCC(c1ccccc1)c1ccccc1)C(CCO)C(=O)NCc1ccc(F)cc1` (stereo unspecified), the IC50 is 58.9 µM in experiment [1] and 97.7 µM in experiment [3]. For the same molecule, the Activity in experiment [2] stood at 74%.
As for `O=C(NCc1ccc(Cl)cc1)C(CCO)N1CCC(=C(c2ccccc2)c2ccccc2)CC1` (stereo unspecified), the concentration for half-maximal inhibition (IC50) in experiment [1] is 17.8 µM; in experiment [3] it was 33.9 µM. Further, the affinity in experiment [5] corresponds to a Ki of 75.9 µM.
On to `O=C(NCc1ccccc1)C(CCO)N1CCC(C(c2ccccc2)c2ccccc2)CC1` (stereo unspecified), for which the values for the Activity in experiment [7] and in experiment [2] were 51% and 55%, respectively. Also, the IC50 in experiment [1] is 58.9 µM; in experiment [3], 13.2 µM.
Regarding `O=C(NCc1ccccc1Cl)C(CCO)N1CCC(=C(c2ccccc2)c2ccccc2)CC1` (stereo unspecified), in experiment [1], the IC50 is 67.6 µM. Besides, the Activity in experiment [2] came out at 68%; in experiment [4], 58%.
For `C[C@H](O)C[C@H](C(=O)NCc1ccccc1)N1CCC(=C(c2ccccc2)c2ccccc2)CC1` (relative stereo), the half-inhibitory concentration (IC50) is 72.4 µM in experiment [1] and 24 µM in experiment [3]. Besides, the Activity in experiment [2] came to 51%.
The corresponding values for `Cc1ccc(CNC(=O)C(CCO)N2CCC(C(c3ccccc3)c3ccccc3)CC2)cc1` (stereo unspecified) are 87.1 µM, 30.2 µM and 55%.
The corresponding values for `CN(CCCC(c1ccccc1)c1ccccc1)C(CCO)C(=O)NCc1ccccc1Cl` (stereo unspecified) are 25.7 µM, 37.2 µM and 85%.
In the case of `Cc1ccc(CNC(=O)C(CCO)NCCCC(c2ccccc2)c2ccccc2)cc1` (stereo unspecified), the figures for the IC50 in experiment [1] and in experiment [3] were 23.4 µM and 55 µM, respectively. Besides, the affinity in experiment [5], expressed as Ki, was 51.3 µM.
`CN(CCC=C(c1ccccc1)c1ccccc1)C(CCO)C(=O)NCc1ccccc1` (stereo unspecified): the IC50 in experiment [1] was 22.9 µM; in experiment [3], 10.5 µM. Further, the Activity in experiment [2] stood at 50%.
`Cc1ccsc1C(=CCCN1CCC[C@@H](C(=O)O)C1)c1sccc1C` [TIAGABINE] had a Ki in experiment [5] of 0.0389 µM. Besides, the Activity in experiment [6] came to 73%.
Turning to `C[C@H](O)C[C@H](C(=O)NCc1ccc(Cl)cc1)N1CCC(=C(c2ccccc2)c2ccccc2)CC1` (relative stereo), the IC50 in experiment [1] was 69.2 µM; in experiment [3], 66.1 µM. The Activity in experiment [2] was found to be 69%.
Taken in the same sequence, the figures for `O=C(NCc1ccc(F)cc1)C(CCO)N1CCC(C(c2ccccc2)c2ccccc2)CC1` (stereo unspecified) were 81.3 µM, 18.2 µM and 49%.
Taken in the same sequence, the figures for `Cc1ccc(CNC(=O)C(CCO)N(C)CCC=C(c2ccccc2)c2ccccc2)cc1` (stereo unspecified) were 16.6 µM, 22.4 µM and 50%.
The corresponding values for `O=C(NCc1ccccc1Cl)C(CCO)N1CCC(C(c2ccccc2)c2ccccc2)CC1` (stereo unspecified) are 67.6 µM, 19.5 µM and 89%.
In the case of `CN(CCC=C(c1ccccc1)c1ccccc1)C(CCO)C(=O)NCc1ccc(F)cc1` (stereo unspecified), the values for the IC50 in experiment [1] and in experiment [3] were 20 µM and 21.9 µM, respectively. Besides, the Activity in experiment [2] was determined as 73%.
`Cc1ccc(CNC(=O)[C@@H](C[C@H](C)O)N2CCC(=C(c3ccccc3)c3ccccc3)CC2)cc1` (relative stereo): the figures for the 50% inhibitory concentration (IC50) in experiment [1] and in experiment [3] were 34.7 µM and 53.7 µM, respectively. The Activity in experiment [2] came out at 57%.
Taken in the same sequence, the figures for `CN(CCCC(c1ccccc1)c1ccccc1)C(CCO)C(=O)NCc1ccc(Cl)cc1` (stereo unspecified) were 22.9 µM, 38.9 µM and 67%.
As to `CN(CCC=C(c1ccccc1)c1ccccc1)C(CCO)C(=O)NCc1ccc(Cl)cc1` (stereo unspecified), the values for the IC50 in experiment [1] and in experiment [3] were 11.2 µM and 23.4 µM, respectively. Also, the Activity in experiment [2] came to 61%.
For `C[C@@H](O)C[C@H](C(=O)NCc1ccc(F)cc1)N1CCC(=C(c2ccccc2)c2ccccc2)CC1` (relative stereo), the IC50 is 41.7 µM in experiment [1] and 16.2 µM in experiment [3]. This molecule gave a Ki in experiment [5] of 42.7 µM.
Turning to `C[C@H](O)C[C@H](C(=O)NCc1ccccc1Cl)N1CCC(=C(c2ccccc2)c2ccccc2)CC1` (relative stereo), the Activity turned out to be 73% in experiment [7], 95% in experiment [2], 71% in experiment [6] and 47% in experiment [4].
For `O=C(NCc1ccc(Cl)cc1)C(CCO)N1CCC(C(c2ccccc2)c2ccccc2)CC1` (stereo unspecified), the values for the concentration for half-maximal inhibition (IC50) in experiment [1] and in experiment [3] were 69.2 µM and 24 µM, respectively. Further, the Activity in experiment [2] is 68%.
The corresponding values for `CN(CCC=C(c1ccccc1)c1ccccc1)C(CCO)C(=O)NCc1ccccc1Cl` (stereo unspecified) are 10 µM, 19.1 µM and 54%.
For `C[C@@H](O)C[C@H](C(=O)NCc1ccccc1Cl)N1CCC(=C(c2ccccc2)c2ccccc2)CC1` (relative stereo), the Activity in experiment [7] came out at 69%; in experiment [2], 99%; in experiment [6], 99%; in experiment [8], 79%; in experiment [4], 95%.

As usually defined, the IC50 is the concentration at which inhibition is half-maximal. Read a high IC50 as a need for much substance. By Ki is commonly meant the dissociation constant of the complex between target and ligand, obtained from inhibition or displacement.
